Reference: ChEMBL document CHEMBL3217450, “Structure based virtual screening for discovery of novel human neutrophil elastase inhibitors” (Medchemcomm, 2012)
Residues, ends and D or L forms follow the SMILES beside them. *: point of attachment. MeOSuc = COC(=O)CCC(=O)*; CH2Cl = ClC*

Assays:
[1] = biological target: T1, Neutrophil elastase (Homo sapiens, UniProt P08246); experiment: Inhibition of human neutrophil elastase using N-MeOSuc-Ala-Ala-Pro-Val-p-nitroanilide as substrate incubated for 30 mins prior to substrate addition measured for 60 mins by chromogenic 96 well microplate assay
T1 sequence (P08246 whole entry): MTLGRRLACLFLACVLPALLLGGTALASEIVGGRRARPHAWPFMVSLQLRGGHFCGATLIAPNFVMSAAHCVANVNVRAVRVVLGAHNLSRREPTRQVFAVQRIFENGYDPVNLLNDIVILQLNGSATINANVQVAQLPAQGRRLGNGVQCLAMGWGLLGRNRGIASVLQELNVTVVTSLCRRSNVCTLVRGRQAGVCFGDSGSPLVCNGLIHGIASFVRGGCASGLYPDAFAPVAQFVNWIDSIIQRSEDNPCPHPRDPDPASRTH

[2] = Cytotoxicity against mouse NIH/3T3 cells after 24 hrs; type: cell-based; conditions: NIH3T3, 24 h
[3] = test system: HEK-293T; experiment: Cytotoxicity against human HEK293T cells after 24 hrs; type: cell-based
[4] = Chemical stability of the compound in phosphate buffer at pH 7.4 assessed as compound remaining at 50 uM after 2 days by HPLC analysis; type: physicochemical; conditions: read-out: Stability
[5] = biological target: T2, Neutrophil elastase (Homo sapiens) (UniProt P08246); experiment: Competitive inhibition of human neutrophil elastase assessed as product formation using N-MeOSuc-Ala-Ala-Pro-Val-p-nitroanilide as substrate measured for 120 mins by chromogenic 96 well microplate assay
T2 sequence (whole entry): T1 sequence (P08246 whole entry)

[6] = biological target: T3, Myeloblastin (Homo sapiens, UniProt P24158); experiment: Inhibition of proteinase 3 in human neutrophil using N-MeOSuc-Ala-Ala-Pro-Val-p-nitroanilide as chromogenic substrate measured for 60 mins by chromogenic assay
T3 sequence (P24158 whole entry): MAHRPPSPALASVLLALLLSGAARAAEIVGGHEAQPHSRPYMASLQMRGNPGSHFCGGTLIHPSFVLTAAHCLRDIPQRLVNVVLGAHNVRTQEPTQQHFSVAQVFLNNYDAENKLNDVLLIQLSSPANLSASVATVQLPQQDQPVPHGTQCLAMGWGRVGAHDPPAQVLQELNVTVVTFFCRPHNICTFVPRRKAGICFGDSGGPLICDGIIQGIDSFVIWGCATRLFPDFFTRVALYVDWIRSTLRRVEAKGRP

[7] = biological target: T4, Cathepsin G (Homo sapiens, UniProt P08311); experiment: Inhibition of cathepsin G in human neutrophil using Suc-Ala-Ala-Pro-Phe-p-nitroanilide as chromogenic substrate incubated for 30 mins prior to substrate addition measured for 30 mins by progress curve method
T4 sequence (P08311 whole entry): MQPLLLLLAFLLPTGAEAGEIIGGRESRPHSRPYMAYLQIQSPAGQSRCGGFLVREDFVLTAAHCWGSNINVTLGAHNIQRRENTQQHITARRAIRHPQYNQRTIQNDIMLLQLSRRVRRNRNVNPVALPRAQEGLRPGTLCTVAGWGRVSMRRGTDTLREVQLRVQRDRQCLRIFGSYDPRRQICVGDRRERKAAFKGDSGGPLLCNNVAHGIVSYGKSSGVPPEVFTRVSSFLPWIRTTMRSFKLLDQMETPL

[8] = biological target: Pancreatic elastase (Sus scrofa, UniProt P08419+P00772); experiment: Inhibition of porcine pancreatic elastase using MeO-Suc-Ala-Ala-Pro-Val-AMC as substrate incubated for 30 mins prior to substrate addition measured for 30 mins by incubation method based fluorescence analysis; type: protein assay
[9] = Metabolic stability in human plasma assessed as compound remaining after 2 days by HPLC analysis; type: ADME, cell-free; conditions: read-out: Stability
[10] = Chemical stability of the compound in phosphate buffer at pH 7.4 assessed as compound remaining at 100 uM after 2 days by HPLC analysis; type: physicochemical; conditions: read-out: Stability
[11] = Metabolic stability in Sprague-Dawley rat pooled liver microsomes assessed as compound remaining after 2 days by HPLC analysis in absence of NADPH generating system; type: ADME; conditions: read-out: Stability
[12] = Metabolic stability in Sprague-Dawley rat pooled liver microsomes assessed as compound remaining after 2 days by HPLC analysis in presence of NADPH generating system; type: ADME; conditions: read-out: Stability

Row | IC50 [1] | IC50 ([1]; read-out: IC50) [µM] | Structure (SMILES) | also measured
1 | ND(Insoluble) |  | c1ccc(-c2noc(CSc3nnc(Cc4cccs4)n3-c3ccccc3)n2)cc1 | 
2 |  | > 100 | COC(=O)C(CSCc1ccccc1)NC(=O)CSc1nc2ccccc2[nH]1 (stereo unspecified) | 
3 | ND(Insoluble) |  | Cc1sc(NC(=O)CSc2nnc(Cc3ccccc3)n2C)nc1-c1ccccc1 | 
4 |  | > 100 | O=C(CSc1nnc(Cc2ccccc2)n1Cc1ccccc1)NCc1ccco1 | 
5 | ND(Insoluble) |  | O=C(CSc1nc2ccccc2n1Cc1ccccc1F)NCc1ccc2c(c1)OCO2 | 
6 |  | > 100 | COc1ccc(CCNC(=O)C(Sc2ccccn2)c2ccccc2)cc1OC (stereo unspecified) | 
7 |  | > 100 | O=C(CSc1nnc2scc(-c3ccc(Cl)cc3)n12)NCc1cccnc1 | 
8 |  | 17.6 | Nc1c(C(=O)NCc2cccs2)c2nc3ccccc3nc2n1/N=C/c1ccccn1 | 
9 |  | > 100 | O=C(CSc1nnc(C2CC2)n1Cc1ccccc1)NCc1ccccc1 | 
10 |  | 20.3 | COC(=O)CCC(=O)N[C@@H](C)C(=O)N[C@@H](C)C(=O)N1CCC[C@H]1C(=O)N[C@@H](C)C(=O)CCl (MeOSuc-AAPA-CH2Cl) | 
11 | ND(Insoluble) |  | COc1ccc(C(=O)CSc2nnc(COc3ccccc3)n2Cc2ccco2)cc1 | 
12 | ND(Insoluble) |  | CCC(Sc1nc(-c2ccccc2)cc(-c2ccccc2)n1)C(=O)Nc1nnc(C)s1 (stereo unspecified) | 
13 |  | > 100 | COc1ccc(-n2c(COc3ccc4ccccc4c3)nnc2SCC(=O)O)cc1 | 
14 |  | 18.4 | O=C(Oc1coc(CSc2nnc(NC(=O)C3CC3)s2)cc1=O)c1cccc(F)c1 | IC50 [2]: > 134 µM; IC50 [3]: > 134 µM; remaining at 48 h, 50 µM [4]: > 80%; inhibition [5]: Dose-dependent effect; IC50 [6]: > 134 µM; IC50 [7]: > 134 µM; IC50 [8]: > 134 µM
15 |  | > 100 | NC(=O)CSc1nnc2c3c4c(sc3nc(SCc3ccccc3)n12)CCC4 | 
16 |  | > 100 | CCC(N)c1nc(C(=O)NC(Cc2ccccc2)C(=O)OCc2ccccc2)co1 (stereo unspecified) | 
17 |  | > 100 | COc1ccc(-n2c(COc3ccc4ccccc4c3)nnc2SCC(N)=O)cc1 | 
18 | ND(Insoluble) |  | O=C(Cc1cn2ccsc2n1)N/N=C/c1cn(-c2ccccc2)nc1-c1cccs1 | 
19 | ND(Insoluble) |  | C=CCn1c(Cc2ccccc2)nnc1SCC(=O)Nc1nc(-c2ccccc2)cs1 | 
20 |  | > 100 | O=C(NCc1ccccc1)c1ccc2nc(-c3ccccn3)c(-c3ccccn3)nc2c1 | 
21 |  | > 100 | Cc1ccc(-n2c(COc3ccc4ccccc4c3)nnc2SCC(=O)O)cc1 | 
22 | ND(Insoluble) |  | NC(=O)CSc1nnc2c3c4c(sc3nc(SCc3ccccc3)n12)CCCC4 | 
23 |  | 32.1 | CCOC(=O)C(CSCc1ccccc1)NC(=O)c1coc(-c2ccc(N)cc2)n1 (stereo unspecified) | 
24 |  | > 100 | O=C(O)CSc1nnc(CSc2nc3ccccc3s2)n1-c1ccccc1 | 
25 |  | > 100 | Oc1ccc2c(c1)Oc1ncn3nc(CO/N=C/c4ccccc4)nc3c1C2c1ccccc1 (stereo unspecified) | 
26 |  | > 100 | Cc1occc1-c1nnc(SCC(=O)NCCc2ccccc2)n1C(C)c1ccccc1 (stereo unspecified) | 
27 |  | 26.9 | Nc1nnc(SC(C(=O)Nc2cc(Cl)cc(Cl)c2)c2ccccc2)[nH]1 (stereo unspecified) | IC50 [2]: > 139 µM; remaining at 48 h [9]: > 80%; IC50 [3]: > 139 µM; remaining at 48 h, 100 µM [10]: > 80%; inhibition [5]: Dose-dependent effect; remaining at 48 h [11]: > 80%; IC50 [6]: > 139 µM; IC50 [7]: > 139 µM; remaining at 48 h [12]: > 80%; IC50 [8]: > 139 µM
28 | ND(Insoluble) |  | C=CCn1c(=O)c2ccccc2n2c(SCC(=O)NCc3cccs3)nnc12 | 
29 | ND(Insoluble) |  | COc1ccc(C(=O)CSc2nnc(COc3ccccc3)n2Cc2ccccc2)cc1 | 
